Source: patent US12174461B2, “Sustained release of oleic acid from contact lenses” (CooperVision International Limited, priority 2022, dated 2024)

What was measured:
[1] = Amount of DOPG loaded in stenfilcon A lens, by IPA extraction and LCMS; type: physicochemical; settings: about 90 minutes
Description: 1,2-Dioleoyl-sn-glycero-3-phospho-rac-(1-glycerol) sodium salt (DOPG) from Sigma-Aldrich was dissolved into a 50% by volume ethanol (EtOH) 50% by volume deionized water solution and sonicated until the DOPG was fully dissolved to provide DOPG loading solutions ranging in concentration from 1 mg/ml to 10 mg/ml.
Silicone hydrogel contact lenses were prepared by curing the formulation for stenfilcon A in polypropylene contact lens molds. The cured stenfilcon A was removed from the molds, and each lens was extracted in EtOH to remove unreacted monomer. The lenses were then placed in the DOPG loading solutions for about 90 minutes and then hydrated in several exchanges of DI water. The lenses were packaged in plastic blisters with about 1.2 ml of a packaging solution comprising phosphate buffered saline (PBS) and autoclaved.
The amount of DOPG in each lens was determined by extracting the lens with isopropanol (IPA) and measuring DOPG in the extract by LCMS. Briefly, each lens was removed from its blister pack, lightly blotted to remove excess packaging solution, and placed in a 20 mL glass vial containing 10 mL 100% IPA. The vials were placed on a bench top shaker at 300 rpm overnight (˜16 hours) at room temperature. For stenfilcon A, a single […] extraction step is sufficient to extract substantially all the DOPG from the lense. Silicone hydrogel lens materials that are more hydrophobic may require a second overnight extraction in order to extract all the DOPG, in which case the IPA from the first extraction step is removed and replaced with 3 mL fresh IPA and shaken overnight at 300 rpm at room temperature. The amount of DOPG in the IPA extract from each lens is determined by LCMS compared to a DOPG standard solution.

[2] = biological target: T1, recombinant human PLA2G2A (sPLA2-IIA) (Homo sapiens, UniProt P14555); experiment: sPLA2 digestion assay: oleic acid release from stenfilcon A lenses loaded with phospholipid, in ATF with and without sPLA2 (LCMS); type: biochemical; settings: 35±2° C., 4 hours; for Oleic acid peak area in ATF (without sPLA2): 4 mm piece of phospholipid-loaded stenfilcon A lens in 100 μL ATF; for Ratio of OA peak area in ATF with and without sPLA2: stenfilcon A lens pieces, 50 ppm sPLA2
T1 construct: purchased Creative BioMart PLA2G2A-669H
T1 sequence (P14555 21-144): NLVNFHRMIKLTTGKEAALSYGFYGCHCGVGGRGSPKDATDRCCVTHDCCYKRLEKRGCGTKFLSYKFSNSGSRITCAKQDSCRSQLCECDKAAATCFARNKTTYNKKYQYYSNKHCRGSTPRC
Description: The phospholipids shown in Table 1 were obtain from Avanti Polar Lipids. 3 mg/ml loading solutions of the phospholipids shown in Table 1 were prepared by adding 2.4 mL ethanol to 9 mg of phospholipid, sonicating (up to 15 minutes) then adding 0.6 mL DI water and sonicating again (up to 15 minutes) to dissolve the phospholipid.
Hydrated contact lenses made from stenfilcon A were washed three times in 3 mL purified water for 30 minutes each time. Each washed lens was placed in 3 mL of a phospholipid loading solution and incubated at room temperature with gentle shaking at 75 rpm for 3 hours. The loaded lenses were then rinsed and hydrated in several exchanges of DI water. The lenses were packaged in a buffered saline contact lens packaging solution and autoclaved.
An artificial tear fluid (ATF) was prepared by adding the first three ingredients listed in Table 2 to a clean class vial and then adding 30 mL of the fourth ingredient.
After autoclave each lens was removed from its package and place in a 6 mL glass vial containing 5 mL of the ATF at room temperature on a shaker at 125 rpm overnight to elute any free oleic acid that may be present in the lens.
Each lens was rinsed in a 6 ml glass vial containing a fresh aliquot of 5 mL ATF for 30 minutes prior to running the digestion assay.
A 50 ppm solution of sPLA2 was prepared in ATF by adding 200 μl ATF to a tube containing 10 μg recombinant human PLA2G2A (Creative BioMart, Cat. No. PLA2G2A-669H). The solution is referred to as ATF+sPLA2. Two 4 mm pieces were cut from each lens. One piece of each lens was placed in a tube with 100 μL ATF and the other piece was placed in a tube containing 100 μL ATF+sPLA2. The tubes were incubated at 35±2° C. for 4 hours with no shaking.
50 μl of the release media from each lens at T=4 hr was transferred to HPLC vials and 500 μl isopropanol (IPA) was added and mixed well. T=0 hr HPLC vials were also prepared (50 μl ATF+500 μl IPA). All vials were sonicated for 15 minutes and centrifuged. The supernatant was removed for LCMS injection.
The supernatants were injected on an LCMS instrument equipped with an ACQUITY UPLC BEH C18 […], 2.1 mm×15 cm column and running a mobile phase gradient from 65% A to 90% B at a flow rate of 0.35 mL/min with A=40% acetonitrile in water with 10 mM ammonium acetate and 0.2% (v/v) ammonium hydroxide, and B=10% acetonitrile in IPA with 10 mM ammonium acetate and 0.2% (v/v) ammonium hydroxide. The mass spec detector is run at negative electrospray mode. The peaks for oleic acid (OA) in the supernatants were measured (m/z trace=281.24). The ratio of OA peak area in ATF with and without sPLA2 was calculated.

[3] = system: sPLA2 enzymes found in human tears; experiment: Susceptibility of phospholipid in a silicone hydrogel contact lens body to digestion by tear sPLA2 enzymes; type: biochemical; settings: phospholipid present in a silicone hydrogel contact lens body
Description: To achieve these and other advantages, and in accordance with the purposes of the present invention, as embodied and broadly described herein, the present invention, in part relates to a hydrogel contact lens comprising a polymeric lens body loaded with 2-oleoyl phospholipid. The 2-oleoyl phospholipid is advantageously susceptible to digestion by secretory phospholipase 2-acylhydrolase (sPLA2) enzymes found in human tears, especially group IIA secretory phospholipase 2-acylhydrolase (sPLA2-IIA). The 2-oleoyl phospholipid present in the contact lens body is advantageously susceptible to digestion by sPLA2 enzymes found in human tears, especially sPLA2-IIA when the 2-oleoyl phospholipid is present in the polymeric lens body of a silicone hydrogel contact lens, such as a stenfilcon A contact lens. […] For the avoidance of doubt, while the determination of whether a 2-oleoyl phospholipid is susceptible to digestion by sPLA2 enzymes may be carried out by loading the 2-oleoyl phospholipid to a stenfilcon A lens, the contact lens of the invention, including contact lenses comprising 2-oleoyl phospholipid that have been determined to be susceptible to digestion by sPLA2 enzymes, need not be stenfilcon A lenses and may be silicone hydrogel lenses of any formulation. […]

| SMILES | Oleic acid peak area in ATF (without sPLA2) ([2]; LCMS m/z 281.24) | Ratio of OA peak area in ATF with and without sPLA2 [2] | further results |
| --- | --- | --- | --- |
| CCCCCCCC/C=C\CCCCCCCC(=O)OC[C@H](COP(=O)(O)OCC(O)CO)OC(=O)CCCCCCC/C=C\CCCCCCCC (mixture of isomers) [DOPG, 1,2-dioleoyl-sn-glycero-3-phospho-(1′-rac-glycerol)] | 36 | 279 | Average amount of DOPG/lens ([1]; DOPG loading concentration 1.0 mg/mL in 50% EtOH/water): 240 µg; Average amount of DOPG/lens ([1]; DOPG loading concentration 2.5 mg/mL in 50% EtOH/water): 495 µg; Average amount of DOPG/lens ([1]; DOPG loading concentration 5.0 mg/mL in 50% EtOH/water): 760 µg; Average amount of DOPG/lens ([1]; DOPG loading concentration 7.5 mg/ml in 50% EtOH/water): 895 µg; Average amount of DOPG/lens ([1]; DOPG loading concentration 10.0 mg/ml in 50% EtOH/water): 975 µg; Oleic acid peak area in ATF + sPLA2 ([2]; 4 mm piece of phospholipid-loaded stenfilcon A lens in 100 μL ATF + 50 ppm recombinant human PLA2G2A, LCMS m/z 281.24): 9958 |
| CCCCCCCC/C=C\CCCCCCCC(=O)OC[C@H](COP(=O)(O)OCCN)OC(=O)CCCCCCC/C=C\CCCCCCCC [DOPE, 1,2-dioleoyl-sn-glycero-3-phosphoethanolamine] | 463 | 4.6 | – |
| CCCCCCCC/C=C\CCCCCCCC(=O)OC[C@H](COP(=O)([O-])OCC[N+](C)(C)C)OC(=O)CCCCCCC/C=C\CCCCCCCC [DOPC, 1,2-dioleoyl-sn-glycero-3-phosphocholine, reference compound] | 102 | 1.2 | – |
| CCCCCCCCCCCCCC(=O)OC[C@H](COP(=O)([O-])OCC[N+](C)(C)C)OC(=O)CCCCCCCCCCCCC [DMPC, 1,2-dimyristoyl-sn-glycero-3-phosphocholine] | – | – | Susceptibility to digestion by sPLA2 enzymes found in human tears [3]: not be susceptible to digestion by sPLA2 enzymes |
| CCCCCCCC/C=C\CCCCCCCC(=O)OC[C@H](COP(=O)(O)OC[C@H](N)C(=O)O)OC(=O)CCCCCCC/C=C\CCCCCCCC [DOPS, 1,2-dioleoyl-sn-glycero-3-phospho-L-serine] | 88 | – | – |
